In general, inhibition refers to the percentage by which the read-out fell short of the control.

Each structure is given as a SMILES string.

Assay [1] deals with T1, angiotensin II receptor subtype 1 (AT1) (Oryctolagus cuniculus, UniProt P34976).
T1 construct: receptor : from adrenal glands in rabbits; from tissue; host or cells: rabbit adrenal glands
T1 sequence (P34976 1-359): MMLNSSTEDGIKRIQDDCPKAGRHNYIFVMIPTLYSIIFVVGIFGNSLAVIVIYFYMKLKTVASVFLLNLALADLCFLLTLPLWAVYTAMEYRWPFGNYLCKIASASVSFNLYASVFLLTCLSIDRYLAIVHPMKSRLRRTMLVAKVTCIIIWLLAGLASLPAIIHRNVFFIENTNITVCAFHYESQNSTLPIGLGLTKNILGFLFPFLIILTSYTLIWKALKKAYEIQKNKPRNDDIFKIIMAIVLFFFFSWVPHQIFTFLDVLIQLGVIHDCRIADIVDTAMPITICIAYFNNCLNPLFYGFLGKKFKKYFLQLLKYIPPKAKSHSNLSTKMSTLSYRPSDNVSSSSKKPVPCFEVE
Nature of the assay: Binding to receptors: angiotensin II receptor subtype 1 (AT1). Details: species or system rabbits (adrenal glands). The following applies: rabbit adrenal glands, tracer 3H-angiotensin II. The procedure:
(§1) In this Example, the affinity to the angiotensin II receptor subtype 1 or subtype 2 was evaluated by a binding assay in accordance with the method described in Biochem. Pharmacol., 33, 4057-4062 (1984).
(§2) Specifically, the measurement of the total binding in the presence of each drug was performed as follows:
(§3) A mixture (final volume=0.25 ml) of a drug in a given concentration (the drug was dissolved in DMSO, and diluted to a double volume with a buffer attached to a drug discovery system to prepare a sample for the assay; 0.025 ml), a tracer (0.025 ml), and receptors (0.2 ml) was incubated [in the case of the angiotensin II receptor subtype 1 (AT1), at room temperature for 3 hours, and in the case of the subtype 2 (AT2), at 37° C. for 1 hour]. Then, the reaction mixture was filtered with suction (GF/C filter was used in AT1, and GF/B filter was used in AT2). The filter papers after filtration with suction (the tracer bound to the receptors) were counted by a γ-well counter (ARC-500, Aloka). The non-specific bindings were measured by repeating the above method, except that a large excess amount of a displacer was added. The specific binding of the drug in the given concentration was calculated by subtracting the non-specific binding from the total binding, respectively.
receptor : from adrenal glands in rabbits
tracer : ^3 Hangiotensin II

Assay [2] deals with T2, angiotensin II receptor subtype 2 (AT2) (Bos taurus, UniProt G5E6F7).
T2 construct: receptor : from cerebellar cortex in bovine; from tissue; host or cells: bovine cerebellar cortex
T2 sequence (G5E6F7 1-362): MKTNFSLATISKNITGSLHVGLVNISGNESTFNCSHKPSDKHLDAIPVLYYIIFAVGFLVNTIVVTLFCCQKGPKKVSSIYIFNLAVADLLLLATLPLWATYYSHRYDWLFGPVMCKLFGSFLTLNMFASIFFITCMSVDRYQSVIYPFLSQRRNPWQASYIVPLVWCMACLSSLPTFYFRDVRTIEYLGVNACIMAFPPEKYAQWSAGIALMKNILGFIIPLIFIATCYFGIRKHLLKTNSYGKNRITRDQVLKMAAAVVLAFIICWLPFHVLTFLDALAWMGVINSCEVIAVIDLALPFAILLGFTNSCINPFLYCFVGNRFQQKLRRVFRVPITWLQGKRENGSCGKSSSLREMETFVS
Nature of the assay: Binding to receptors: angiotensin II receptor subtype 2 (AT2). The following applies: bovine cerebellar cortex, tracer 125I-Tyr4-angiotensin II. Here is the method:
as §1, §2, §3
In AT1 and AT2, the percentages found to inhibit the bindings of radioactive ligands (tracer) to receptors by the drugs to be tested (IC50 value of concentration to show 50% inhibition, or binding inhibition % in 100 μM) were measured, using the drugs to be tested and control drugs in the given concentration.
receptor : from cerebellar cortex in bovine
tracer : ^125 ITyr^4angiotensin II
control drug : angiotensin II (human)
(displacer) : angiotensin II (human)

`CCCCC(=O)N(Cc1ccc(C(=O)OCCN(C)C)cc1)c1cc(C(=O)N2CCOCC2)ccc1N(C)C` [Compound No. 1, 4-dimethylamino-3-N-[[[4-(2'-dimethylaminoethoxycarbonyl)phenyl]methyl]valeramido]benzoic acid morpholide]: the inhibition at 100 µM came out at 10% in assay [1] and 16% in assay [2].

As for `CCCCC(=O)N(Cc1ccc(C(=O)OCCCN(C)C)cc1)c1cc(C(=O)N2CCOCC2)ccc1N(C)C` [Compound No. 2, 4-dimethylamino-3-N-[[[4-(3'-dimethylaminopropoxycarbonyl)phenyl]methyl]valeramido]benzoic acid morpholide], the inhibition at 100 µM in assay [1] came to 14%; in assay [2] it was 0%.

Turning to `CCCCC(=O)N(Cc1ccc(C(=O)OCCCN)cc1)c1cc(C(=O)N2CCOCC2)ccc1N(C)C` [Compound No. 3, 3-N-[[[4-(3'-aminopropoxycarbonyl)phenyl]methyl]valeramido]-4-dimethylaminobenzoic acid morpholide], the inhibition at 100 µM in assay [1] and in assay [2] was 0% throughout.

As to `CCCCC(=O)N(Cc1ccc(C(=O)OCCN(C)C)cc1)c1cc(C(=O)N2CCOCC2)ccc1C(C)C` [Compound No. 6, 3-N-[[[4-(2'-dimethylaminoethoxycarbonyl)phenyl]methyl]valeramido]-4-i-propylbenzoic acid morpholide], the values for the inhibition at 100 µM in assay [1] and in assay [2] were 11% and 21%, respectively.

As for `CCCCC(=O)N(Cc1ccc(C(=O)OCCCN(C)C)cc1)c1cc(C(=O)N2CCOCC2)ccc1C(C)C` [Compound No. 7, 3-N-[[[4-(3'-dimethylamino-1'-propoxycarbonyl)phenyl]methyl]valeramido]-4-i-propylbenzoic acid morpholide], the inhibition at 100 µM in assay [1] is 14%; in assay [2] it was 0%.

Consider `CCCCC(=O)N(Cc1ccc(C(=O)OCCN(CC)CC)cc1)c1cc(C(=O)N2CCOCC2)ccc1C(C)C` [Compound No. 8, 3-N-[[[4-(2'-diethylaminoethoxycarbonyl)phenyl]methyl]valeramido]-4-i-propylbenzoic acid morpholide], for which the values for the inhibition at 100 µM in assay [1] and in assay [2] were 11% and 0%, respectively.

For the compound `CCCCC(=O)N(Cc1ccc(C(=O)OCCN2CCOCC2)cc1)c1cc(C(=O)N2CCOCC2)ccc1C(C)C` [Compound No. 9, 3-N-[[[4-(2'-morpholinoethoxycarbonyl)phenyl]methyl]valeramido]-i-propylbenzoic acid morpholide], the inhibition at 100 µM was 13% in assay [1] and 0% in assay [2].

With `CCCCCCC(=O)N(Cc1ccc(C(=O)O)cc1)c1cc(C(=O)N2CCN(CCC)CC2)ccc1N(C)C` [Compound No. 12, 4-dimethylamino-3-N-[[(4-carboxyphenyl)methyl]n-heptanamido]benzoic acid 4'-n-propyl piperazide], the inhibition at 100 µM in assay [1] and in assay [2] was 0% each time.

With `CCCCCCC(=O)N(Cc1ccc(C(=O)O)cc1)c1cc(C(=O)N2CCN(C)CC2)ccc1N(C)C` [Compound No. 13, 3-[[(4-carboxyohenyl)methyl]n-heptanamido]-4-dimethylaminobenzoic acid 4'-methylpiperazide], the inhibition at 100 µM in assay [1] and in assay [2] was 0% throughout.

For the compound `CCCCC(=O)N(Cc1ccc(C(=O)O)cc1)c1cc(C(=O)N2CCN(C)CC2)ccc1C(C)C` [Compound No. 15, 3-[[(4-carboxyphenyl)methyl]valeramido]-4-i-propylbenzoic acid 4'-methylpiperazide], the inhibition at 100 µM in assay [1] and in assay [2] was 0% throughout.

Consider `CCCCCCC(=O)N(Cc1ccc(C(=O)O)cc1)c1cc(C(=O)N2CCN(C)CC2)ccc1C(C)C` [Compound No. 18, 3-N-[[(4-carboxyphenyl)methyl]n-heptanamido]-4-i-propylbenzoic acid 4'-methylpiperazide], for which the inhibition at 100 µM in assay [1] was determined as 11%; in assay [2], 9%.

Take `CCCCC(=O)N(Cc1ccc(C(=O)O)cc1)c1cc(C(=O)N2CCN(CCC)CC2)ccc1C(C)C` [Compound No. 19, 3-[[(4-carboxyphenyl)methyl]valeramido]-4-i-propylbenzoic acid 4'-n-propylpiperazide]: the values for the inhibition at 100 µM in assay [1] and in assay [2] were 11% and 18%, respectively.

On to `CCCCCCC(=O)N(Cc1ccc(C(=O)O)cc1)c1cc(C(=O)N2CCN(CCC)CC2)ccc1C(C)C` [Compound No. 20, 3-N-[[(4-carboxyphenyl)methyl]n-heptanamido]-4-i-propylbenzoic acid 4'-n-propylpiperazide], for which the inhibition at 100 µM in assay [1] and in assay [2] was 0% each time.

These data come from patent US5863913A, “Aromatic compound and pharmaceutical composition” (Kureha Chemical Industry Co., Ltd., priority 1996, dated 1999).
